Laboratory results taken from patent US20040029965A1, “Formulations for reducing or eliminating toxicity of enviromental hormones containing ursodeoxycholic acid” (priority 2000, published 2004).

Assays:
Format in all cases: in vivo
C57B1/6J mice [1] = experiment: Organ weights (liver, kidneys, testes, epididymides) of mice after a single subcutaneous injection of TCDD
Experimental: Male C57B1/6J mice of 5 weeks old having the average weight of 18-22 g which had been bred in CRJ (Charles River in Japan) were purchased and used in this example as experimental animals. Those mice were acclimated under the constant breeding condition, i.e. the temperature of 24±1° C., the humidity of 60±10% and the light and darkness cycle of 12 hours, for one week and thereafter, utilized in the experiment.
(§1) 2,3,7,8-tetrachlorodibenzo-p-dioxin (TCDD) dissolved in toluene (purity of 95% or more as a result of gas chromatography analysis), manufactured by Chem. Services Inc. in USA, was volatilized with nitrogen to obtain powder. The obtained powder was dissolved in a mixed solvent containing acetone and corn oil with a volume ratio of 1:6. The resulting solution each containing 110, 27.5 and 6.9 μg/kg of TCDD was subcutaneously injected to mice at a volume of 5 ml per body weight. […] The mice were supplied with the feed from 10 days before (pre-administration) to 60 days after administration of TCDD (post-administration).
(§2) Upon completion of the experiment for 60 days, the experimental animals were fasted for 24 hours and anesthetized with ether. Then, they were abdominally incised and blood was gathered from abdominal vena cava. They were sacrificed by the release of blood. Liver, kidneys, testes and epididymides were extracted and all the extracted organs were weighed. Only the testes were separately kept and observed under optical and electron microscopes. For biochemical finding test, serum was separated from blood with a centrifuge and the separated serum was analyzed with an automated blood biochemical analyzer, Dimension (Dupont, USA). Blood was put to another blood gathering bottle and then, analyzed with an automated blood cell analyzer, Celldyn (Abbott, USA).
The results are expressed as Mean±Standard Deviation values. For statistical analysis of the body weight, feed and water uptake, biochemical findings, hematological findings and the weight of organ in an acute toxicity test, verification was performed by one way analysis of variance (ANOVA) in case of equal distribution. In case significance was recognized in ANOVA, the Student's t-test was performed in the levels of p<0.05 and p<0.01.
The organs, i.e. liver, kidneys, testes and epididymides, were weighed and the results are shown in the following.

C57B1/6J mice [2] = experiment: Johnsen's score of the testis tissue (level of spermatogenesis); conditions: score 10 to 1
Experimental: as §1, §2
(§3) The extracted testes were fixed in 10% neutralized formalin buffer for 24 hours and washed with the flowing water. It was subsequently dehydrated with ethanol and cleared with xylene and then, embedded with paraffin. It was sectioned with microtome (microm is HM 440E) to a thickness of 2-3 μm and then, double stained with hematoxylin and eosin to observe under an optical microscope.
For evaluation of the level of spermatogenesis, Johnsen's score was determined from 10 to 1 based on the presence or absence of principal cells arranged according to maturation of spermatogenesis. The basis of Johnsen's score in testes was the following:
10: Perfect spermatogenesis having many sperms, organization of embryonic epithelial cells with a constant thickness, and opened lumen
9: Despite many sperms, significant separation of embryonic epithelial cells from the basement membrane and disruption thereof, or loss of lumen
8: Presence of 5 to less than 10 sperms in the section
7: Many sperm cells without sperms
6: 5 to less than 10 sperm cells without sperms
5: Several or many spermatocytes without sperms and sperm cells
4: Less than 5 spermatocytes without sperms and sperm cells
3: Presence of only spermatogonia as reproductive cells
2: Presence of only Sertoli cells without any reproductive cells
1: No cells in the section of seminiferous tubules

C57B1/6J mice [3] = experiment: Optical microscopy of testes (histopathological findings); conditions: TCDD 27.5 μg/kg alone; FIG. 2
Experimental: as §1, §2, §3

Clc1cc2c(cc1Cl)Oc1cc(Cl)c(Cl)cc1O2 [TCDD, 2,3,7,8-tetrachlorodibenzo-p-dioxin]
Left epididymis Relative weight (C57B1/6J mice [1]; TCDD 6.9 μg/kg alone): 0.101 ± 0.012%
Left epididymis Weight (C57B1/6J mice [1]; TCDD 6.9 μg/kg alone): 0.023 ± 0.005 g
Left kidney Relative weight (C57B1/6J mice [1]; TCDD 6.9 μg/kg alone): 0.508 ± 0.050%
Left kidney Weight (C57B1/6J mice [1]; TCDD 6.9 μg/kg alone): 0.115 ± 0.018 g
Left testis Relative weight (C57B1/6J mice [1]; TCDD 6.9 μg/kg alone): 0.296 ± 0.030%
Left testis Weight (C57B1/6J mice [1]; TCDD 6.9 μg/kg alone): 0.067 ± 0.011 g
Liver Relative weight (C57B1/6J mice [1]; TCDD 6.9 μg/kg alone): 4.092%
Liver Weight (C57B1/6J mice [1]; TCDD 6.9 μg/kg alone): 0.935 ± 0.173 g
Right epididymis Relative weight (C57B1/6J mice [1]; TCDD 6.9 μg/kg alone): 0.110 ± 0.027%
Right epididymis Weight (C57B1/6J mice [1]; TCDD 6.9 μg/kg alone): 0.025 ± 0.007 g
Right kidney Relative weight (C57B1/6J mice [1]; TCDD 6.9 μg/kg alone): 0.513 ± 0.066%
Right kidney Weight (C57B1/6J mice [1]; TCDD 6.9 μg/kg alone): 0.117 ± 0.022 g
Right testis Relative weight (C57B1/6J mice [1]; TCDD 6.9 μg/kg alone): 0.285 ± 0.035%
Right testis Weight (C57B1/6J mice [1]; TCDD 6.9 μg/kg alone): 0.65 ± 0.010 g
Left epididymis Relative weight (C57B1/6J mice [1]; TCDD 27.5 μg/kg alone): 0.124 ± 0.024 %
Left epididymis Weight (C57B1/6J mice [1]; TCDD 27.5 μg/kg alone): 0.021 ± 0.006 g
Left kidney Relative weight (C57B1/6J mice [1]; TCDD 27.5 μg/kg alone): 0.625 ± 0.037 %
Left kidney Weight (C57B1/6J mice [1]; TCDD 27.5 μg/kg alone): 0.101 ± 0.012 g
Left testis Relative weight (C57B1/6J mice [1]; TCDD 27.5 μg/kg alone): 0.356 ± 0.051 %
Left testis Weight (C57B1/6J mice [1]; TCDD 27.5 μg/kg alone): 0.058 ± 0.014 g
Liver Relative weight (C57B1/6J mice [1]; TCDD 27.5 μg/kg alone): 4.506%
Liver Weight (C57B1/6J mice [1]; TCDD 27.5 μg/kg alone): 0.734 ± 0.151 g
Right epididymis Relative weight (C57B1/6J mice [1]; TCDD 27.5 μg/kg alone): 0.129 ± 0.027 %
Right epididymis Weight (C57B1/6J mice [1]; TCDD 27.5 μg/kg alone): 0.021 ± 0.006 g
Right kidney Relative weight (C57B1/6J mice [1]; TCDD 27.5 μg/kg alone): 0.571 ± 0.030 %
Right kidney Weight (C57B1/6J mice [1]; TCDD 27.5 μg/kg alone): 0.092 ± 0.012 g
Right testis Relative weight (C57B1/6J mice [1]; TCDD 27.5 μg/kg alone): 0.352 ± 0.059 %
Right testis Weight (C57B1/6J mice [1]; TCDD 27.5 μg/kg alone): 0.058 ± 0.015 g
Johnsen's score of the testis tissue (C57B1/6J mice [2]; TCDD 6.9 μg/kg alone): 8.06 ± 0.09
Johnsen's score of the testis tissue (C57B1/6J mice [2]; TCDD 27.5 μg/kg alone): 7.42 ± 0.11
seminiferous tubules, optical microphotograph (C57B1/6J mice [3]): remarkably reduced spermatogenesis was observed
